The CheMixHub viscosity set
“And” between values parts separate entries of the source, which are not always exact repeats. Equal values may be shown once. ± gives the uncertainty stated by the source.

Assay: xn = mol fraction of the nth substance listed
Settings: 100 kPa

What does the source list for O=S(=O)([O-])[O-].[O]=[V+2] + O?
viscosity (293.15 K, x1 = 0.000898): 1.035 ± 0.022 mPa·s; viscosity (293.15 K, x1 = 0.00129): 1.048 ± 0.022 mPa·s; viscosity (293.15 K, x1 = 0.00163): 1.068 ± 0.023 mPa·s; viscosity (293.15 K, x1 = 0.002247): 1.089 ± 0.055 mPa·s; viscosity (293.15 K, x1 = 0.002326): 1.101 ± 0.023 mPa·s; viscosity (293.15 K, x1 = 0.002883): 1.132 ± 0.024 mPa·s; viscosity (293.15 K, x1 = 0.003583): 1.154 ± 0.025 mPa·s; viscosity (293.15 K, x1 = 0.004098): 1.174 ± 0.025 mPa·s; viscosity (293.15 K, x1 = 0.004417): 1.19 ± 0.025 mPa·s; viscosity (293.15 K, x1 = 0.00448): 1.189 ± 0.06 mPa·s; viscosity (293.15 K, x1 = 0.005377): 1.236 ± 0.026 mPa·s; viscosity (293.15 K, x1 = 0.006709): 1.297 ± 0.066 mPa·s; viscosity (293.15 K, x1 = 0.00893): 1.418 ± 0.072 mPa·s; viscosity (293.15 K, x1 = 0.0111): 1.548 ± 0.078 mPa·s; viscosity (293.15 K, x1 = 0.0133): 1.696 ± 0.086 mPa·s; viscosity (293.15 K, x1 = 0.0155): 1.854 ± 0.094 mPa·s; viscosity (293.15 K, x1 = 0.0177): 2.031 ± 0.1 mPa·s; viscosity (293.15 K, x1 = 0.01986): 2.226 ± 0.11 mPa·s; viscosity (293.15 K, x1 = 0.02202): 2.436 ± 0.12 mPa·s; viscosity (293.15 K, x1 = 0.02418): 2.662 ± 0.13 mPa·s; viscosity (293.15 K, x1 = 0.02631): 2.89 ± 0.15 mPa·s; viscosity (298.15 K, x1 = 0.000898): 0.9204 ± 0.02 mPa·s; viscosity (298.15 K, x1 = 0.00129): 0.9314 ± 0.02 mPa·s; viscosity (298.15 K, x1 = 0.00163): 0.9499 ± 0.02 mPa·s; viscosity (298.15 K, x1 = 0.002247): 0.9678 ± 0.049 mPa·s; viscosity (298.15 K, x1 = 0.002326): 0.978 ± 0.021 mPa·s; viscosity (298.15 K, x1 = 0.002883): 1.005 ± 0.021 mPa·s; viscosity (298.15 K, x1 = 0.003583): 1.024 ± 0.022 mPa·s; viscosity (298.15 K, x1 = 0.004098): 1.042 ± 0.022 mPa·s; viscosity (298.15 K, x1 = 0.005377): 1.094 ± 0.023 mPa·s; viscosity (298.15 K, x1 = 0.006709): 1.148 ± 0.058 mPa·s; viscosity (298.15 K, x1 = 0.00893): 1.252 ± 0.063 mPa·s; viscosity (298.15 K, x1 = 0.0111): 1.364 ± 0.069 mPa·s; viscosity (298.15 K, x1 = 0.0133): 1.491 ± 0.075 mPa·s; viscosity (298.15 K, x1 = 0.0155): 1.627 ± 0.082 mPa·s; viscosity (298.15 K, x1 = 0.0177): 1.777 ± 0.09 mPa·s; viscosity (298.15 K, x1 = 0.01986): 1.943 ± 0.098 mPa·s; viscosity (298.15 K, x1 = 0.02202): 2.115 ± 0.21 mPa·s and 2.121 ± 0.11 mPa·s; viscosity (298.15 K, x1 = 0.02418): 2.312 ± 0.12 mPa·s; viscosity (298.15 K, x1 = 0.02631): 2.509 ± 0.13 mPa·s; viscosity (303.15 K, x1 = 0.000898): 0.8258 ± 0.018 mPa·s; viscosity (303.15 K, x1 = 0.00129): 0.836 ± 0.018 mPa·s; viscosity (303.15 K, x1 = 0.00163): 0.8519 ± 0.018 mPa·s; viscosity (303.15 K, x1 = 0.002247): 0.8664 ± 0.044 mPa·s; viscosity (303.15 K, x1 = 0.002326): 0.8762 ± 0.019 mPa·s; viscosity (303.15 K, x1 = 0.002883): 0.8997 ± 0.019 mPa·s; viscosity (303.15 K, x1 = 0.003583): 0.9168 ± 0.019 mPa·s; viscosity (303.15 K, x1 = 0.004098): 0.9321 ± 0.02 mPa·s; viscosity (303.15 K, x1 = 0.004417): 0.9437 ± 0.02 mPa·s; viscosity (303.15 K, x1 = 0.00448): 0.943 ± 0.048 mPa·s; viscosity (303.15 K, x1 = 0.005377): 0.9762 ± 0.021 mPa·s; viscosity (303.15 K, x1 = 0.006709): 1.024 ± 0.052 mPa·s; viscosity (303.15 K, x1 = 0.00893): 1.115 ± 0.056 mPa·s; viscosity (303.15 K, x1 = 0.0111): 1.212 ± 0.061 mPa·s; viscosity (303.15 K, x1 = 0.0133): 1.322 ± 0.067 mPa·s; viscosity (303.15 K, x1 = 0.0155): 1.44 ± 0.073 mPa·s; viscosity (303.15 K, x1 = 0.0177): 1.57 ± 0.079 mPa·s; viscosity (303.15 K, x1 = 0.01986): 1.711 ± 0.086 mPa·s; viscosity (303.15 K, x1 = 0.02418): 2.027 ± 0.1 mPa·s; viscosity (303.15 K, x1 = 0.02631): 2.196 ± 0.11 mPa·s; viscosity (308.15 K, x1 = 0.000898): 0.7466 ± 0.016 mPa·s; viscosity (308.15 K, x1 = 0.00129): 0.7558 ± 0.016 mPa·s; viscosity (308.15 K, x1 = 0.00163): 0.7707 ± 0.016 mPa·s; viscosity (308.15 K, x1 = 0.002247): 0.7814 ± 0.04 mPa·s; viscosity (308.15 K, x1 = 0.002326): 0.7911 ± 0.017 mPa·s; viscosity (308.15 K, x1 = 0.002883): 0.8136 ± 0.017 mPa·s; viscosity (308.15 K, x1 = 0.003583): 0.8267 ± 0.018 mPa·s; viscosity (308.15 K, x1 = 0.004098): 0.8405 ± 0.018 mPa·s; viscosity (308.15 K, x1 = 0.004417): 0.8499 ± 0.018 mPa·s; viscosity (308.15 K, x1 = 0.00448): 0.8499 ± 0.043 mPa·s; viscosity (308.15 K, x1 = 0.005377): 0.8796 ± 0.019 mPa·s; viscosity (313.15 K, x1 = 0.000898): 0.6802 ± 0.014 mPa·s; viscosity (313.15 K, x1 = 0.00129): 0.688 ± 0.015 mPa·s; viscosity (313.15 K, x1 = 0.00163): 0.7015 ± 0.015 mPa·s; viscosity (313.15 K, x1 = 0.002326): 0.7207 ± 0.015 mPa·s; viscosity (313.15 K, x1 = 0.002883): 0.7379 ± 0.016 mPa·s; viscosity (313.15 K, x1 = 0.003583): 0.7514 ± 0.016 mPa·s; viscosity (313.15 K, x1 = 0.004098): 0.7626 ± 0.016 mPa·s; viscosity (313.15 K, x1 = 0.004417): 0.7718 ± 0.016 mPa·s; viscosity (313.15 K, x1 = 0.005377): 0.7968 ± 0.017 mPa·s; viscosity (318.15 K, x1 = 0.000898): 0.6242 ± 0.013 mPa·s; viscosity (318.15 K, x1 = 0.00129): 0.6311 ± 0.013 mPa·s; viscosity (318.15 K, x1 = 0.00163): 0.6439 ± 0.014 mPa·s; viscosity (318.15 K, x1 = 0.002326): 0.6594 ± 0.014 mPa·s; viscosity (318.15 K, x1 = 0.002883): 0.6736 ± 0.014 mPa·s; viscosity (318.15 K, x1 = 0.003583): 0.6872 ± 0.015 mPa·s; viscosity (318.15 K, x1 = 0.004098): 0.6972 ± 0.015 mPa·s; viscosity (318.15 K, x1 = 0.004417): 0.7049 ± 0.015 mPa·s; viscosity (318.15 K, x1 = 0.005377): 0.7274 ± 0.015 mPa·s; viscosity (318.15 K, x1 = 0.03893): 2.575 ± 0.26 mPa·s; viscosity (323.15 K, x1 = 0.000898): 0.576 ± 0.012 mPa·s; viscosity (323.15 K, x1 = 0.00129): 0.5827 ± 0.012 mPa·s; viscosity (323.15 K, x1 = 0.00163): 0.5926 ± 0.013 mPa·s; viscosity (323.15 K, x1 = 0.002326): 0.6101 ± 0.013 mPa·s; viscosity (323.15 K, x1 = 0.002883): 0.6205 ± 0.013 mPa·s; viscosity (323.15 K, x1 = 0.003583): 0.6348 ± 0.014 mPa·s; viscosity (323.15 K, x1 = 0.004098): 0.6409 ± 0.014 mPa·s; viscosity (323.15 K, x1 = 0.004417): 0.6484 ± 0.014 mPa·s; viscosity (323.15 K, x1 = 0.005377): 0.6684 ± 0.014 mPa·s
